In this experiment the test system is recombinant NL4-3 virus (Renilla luciferase in nef, Gag P373S; NLRluc). Kind of experiment: HIV Cell Culture Assay (luciferase reporter virus in MT-2 cells). It is filed as cell-based. The settings on record: Renilla, NL43, MT-2 cells infected for 4-5 days with NLRluc recombinants, luciferase activity. The procedure: MT-2 cells and 293T cells were obtained from the NIH AIDS Research and Reference Reagent Program. MT-2 cells were propagated in RPMI 1640 media supplemented with 10% heat inactivated fetal bovine serum, […]. The 293T cells were propagated in DMEM media supplemented with 10% heat inactivated fetal bovine serum (FBS), 100 units/mL penicillin G and 100 μg/mL streptomycin. The proviral DNA clone of NL4-3 was obtained from the NIH AIDS Research and Reference Reagent Program. A recombinant NL4-3 virus, in which a section of the nef gene from NL4-3 was replaced with the Renilla luciferase gene, was used as a reference virus. In addition, residue Gag P373 was converted to P373S. Briefly, the recombinant virus was prepared by transfection of the altered proviral clone of NL4-3. Transfections were performed in 293T cells using LipofectAMINE PLUS from Invitrogen (Carlsbad, Calif.), according to manufacturer's instruction. The virus was titered in MT-2 cells using luciferase enzyme activity as a marker. Luciferase was quantitated using the Dual Luciferase kit from Promega (Madison, Wis.), with modifications to the manufacturer's protocol. The diluted Passive Lysis solution was pre-mixed with the re-suspended Luciferase Assay Reagent and the re-suspended Stop & Glo Substrate (2:1:1 ratio). Fifty (50) μL of the mixture was added to each aspirated well on assay plates and luciferase activity was measured immediately on a Wallac TriLux (Perkin-Elmer). Antiviral activities of inhibitors toward the recombinant virus were quantified by measuring luciferase activity in cells infected for 4-5 days with NLRluc recombinants in the presence serial dilutions of the inhibitor. Table 1 is the key for the data in Table 2.

Regarding `CC(C)[C@@H]1CC[C@]2(NC(=O)CN3C[C@@H]4C[C@H]3CS4(=O)=O)CC[C@]3(C)[C@H](CC[C@@H]4[C@@]5(C)CC=C(c6ccc(C(=O)O)cc6)C(C)(C)[C@@H]5CC[C@]43C)[C@@H]12` [Example 4, 4-((1S,3aS,5aR,5bR,7aR,11aS,11bR,13aR,13bR)-3a-(2-((1S,4S)-2,2-dioxido-2-thia-5-azabicyclo[2.2.1]heptan-5-yl)acetamido)-1-isopropyl-5a,5b,8,8,11a-pentamethyl-2,3,3a,4,5,5a,5b,6,7,7a,8,11,11a,11b,12,13,13a,13b-octadecahydro-1H-cyclopenta[a]chrysen-9-yl)benzoic acid], where the note is “reported as group A/B”, the concentration for a half-maximal effect (EC50) (commonly the concentration needed to bring the measured effect to its halfway point) was less than 100 nM.

For the compound `C=C(C)[C@@H]1CC[C@]2(NCCN3C[C@@H]4C[C@H]3CS4(=O)=O)CC[C@]3(C)[C@H](CC[C@@H]4[C@@]5(C)CC=C(c6ccc(C(=O)O)cc6)C(C)(C)[C@@H]5CC[C@]43C)[C@@H]12` [Example 5, 4-((1R,3aS,5aR,5bR,7aR,11aS,11bR,13aR,13bR)-3a-((2-((1S,4S)-2,2-dioxido-2-thia-5-azabicyclo[2.2.1]heptan-5-yl)ethyl)amino)-5a,5b,8,8,11a-pentamethyl-1-(prop-1-en-2-yl)-2,3,3a,4,5,5a,5b,6,7,7a,8,11,11a,11b,12,13,13a,13b-octadecahydro-1H-cyclopenta[a]chrysen-9-yl)benzoic acid], for the setting “reported as group A/B”, the EC50 was less than 100 nM.

As for `C=C(C)[C@@H]1CC[C@]2(N(CCO)CCN3C[C@@H]4C[C@H]3CS4(=O)=O)CC[C@]3(C)[C@H](CC[C@@H]4[C@@]5(C)CC=C(c6ccc(C(=O)O)cc6)C(C)(C)[C@@H]5CC[C@]43C)[C@@H]12` [Example 6, 4-((1R,3aS,5aR,5bR,7aR,11aS,11bR,13aR,13bR)-3a-((2-((1S,4S)-2,2-dioxido-2-thia-5-azabicyclo[2.2.1]heptan-5-yl)ethyl)(2-hydroxyethyl)amino)-5a,5b,8,8,11a-pentamethyl-1-(prop-1-en-2-yl)-2,3,3a,4,5,5a,5b,6,7,7a,8,11,11a,11b,12,13,13a,13b-octadecahydro-1H-cyclopenta[a]chrysen-9-yl)benzoic acid], the EC50 (reported as group A/B) is less than 100 nM.

For the compound `C=C(C)[C@@H]1CC[C@]2(NCCN3C[C@@H]4C[C@H]3CO4)CC[C@]3(C)[C@H](CC[C@@H]4[C@@]5(C)CC=C(c6ccc(C(=O)O)cc6)C(C)(C)[C@@H]5CC[C@]43C)[C@@H]12` [Example 7, 4-((1R,3aS,5aR,5bR,7aR,11aS,11bR,13aR,13bR)-3a-((2-((1S,4S)-2-oxa-5-azabicyclo[2.2.1]heptan-5-yl)ethyl)amino)-5a,5b,8,8,11a-pentamethyl-1-(prop-1-en-2-yl)-2,3,3a,4,5,5a,5b,6,7,7a,8,11,11a,11b,12,13,13a,13b-octadecahydro-1H-cyclopenta[a]chrysen-9-yl)benzoic acid], the EC50 (reported as group A/B) is less than 100 nM.

For the compound `CC(C)[C@@H]1CC[C@]2(NCCN3C[C@@H]4C[C@H]3CO4)CC[C@]3(C)[C@H](CC[C@@H]4[C@@]5(C)CC=C(c6ccc(C(=O)O)cc6)C(C)(C)[C@@H]5CC[C@]43C)[C@@H]12` [Example 8, 4-((1S,3aS,5aR,5bR,7aR,11aS,11bR,13aR,13bR)-3a-((2-((1S,4S)-2-oxa-5-azabicyclo[2.2.1]heptan-5-yl)ethyl)amino)-1-isopropyl-5a,5b,8,8,11a-pentamethyl-2,3,3a,4,5,5a,5b,6,7,7a,8,11,11a,11b,12,13,13a,13b-octadecahydro-1H-cyclopenta[a]chrysen-9-yl)benzoic acid], the EC50 (reported as group A/B) was less than 100 nM.

Consider `C=C(C)[C@@H]1CC[C@]2(NCCN3C[C@@H]4C[C@H]3CN4Cc3ccccc3)CC[C@]3(C)[C@H](CC[C@@H]4[C@@]5(C)CC=C(c6ccc(C(=O)O)cc6)C(C)(C)[C@@H]5CC[C@]43C)[C@@H]12` [Example 9, 4-((1R,3aS,5aR,5bR,7aR,11aS,11bR,13aR,13bR)-3a-((2-((1S,4S)-5-benzyl-2,5-diazabicyclo[2.2.1]heptan-2-yl)ethyl)amino)-5a,5b,8,8,11a-pentamethyl-1-(prop-1-en-2-yl)-2,3,3a,4,5,5a,5b,6,7,7a,8,11,11a,11b,12,13,13a,13b-octadecahydro-1H-cyclopenta[a]chrysen-9-yl)benzoic acid], for which the EC50 came out at 6.09 nM.

For `C=C(C)[C@@H]1CC[C@]2(NCCN3C[C@@H]4C[C@H]3CN4)CC[C@]3(C)[C@H](CC[C@@H]4[C@@]5(C)CC=C(c6ccc(C(=O)O)cc6)C(C)(C)[C@@H]5CC[C@]43C)[C@@H]12` [Example 10, 4-((1R,3aS,5aR,5bR,7aR,11aS,11bR,13aR,13bR)-3a-((2-((1S,4S)-2,5-diazabicyclo[2.2.1]heptan-2-yl)ethyl)amino)-5a,5b,8,8,11a-pentamethyl-1-(prop-1-en-2-yl)-2,3,3a,4,5,5a,5b,6,7,7a,8,11,11a,11b,12,13,13a,13b-octadecahydro-1H-cyclopenta[a]chrysen-9-yl)benzoic acid], the EC50 turned out to be 1.21 nM.

Turning to `C=C(C)[C@@H]1CC[C@]2(NCCN3C[C@@H]4C[C@H]3CN4S(C)(=O)=O)CC[C@]3(C)[C@H](CC[C@@H]4[C@@]5(C)CC=C(c6ccc(C(=O)O)cc6)C(C)(C)[C@@H]5CC[C@]43C)[C@@H]12` [Example 11, 4-((1R,3aS,5aR,5bR,7aR,11aS,11bR,13aR,13bR)-5a,5b,8,8,11a-pentamethyl-3a-((2-((1S,4S)-5-(methylsulfonyl)-2,5-diazabicyclo[2.2.1]heptan-2-yl)ethyl)amino)-1-(prop-1-en-2-yl)-2,3,3a,4,5,5a,5b,6,7,7a,8,11,11a,11b,12,13,13a,13b-octadecahydro-1H-cyclopenta[a]chrysen-9-yl)benzoic acid], where the note is “reported as group A/B”, the 50% effective concentration (EC50) is less than 100 nM.

Consider `CC(C)[C@@H]1CC[C@]2(NCCN3C[C@@H]4C[C@H]3CN4S(C)(=O)=O)CC[C@]3(C)[C@H](CC[C@@H]4[C@@]5(C)CC=C(c6ccc(C(=O)O)cc6)C(C)(C)[C@@H]5CC[C@]43C)[C@@H]12` [Example 12, 4-((1S,3aS,5aR,5bR,7aR,11aS,11bR,13aR,13bR)-1-isopropyl-5a,5b,8,8,11a-pentamethyl-3a-((2-((1S,4S)-5-(methylsulfonyl)-2,5-diazabicyclo[2.2.1]heptan-2-yl)ethyl)amino)-2,3,3a,4,5,5a,5b,6,7,7a,8,11,11a,11b,12,13,13a,13b-octadecahydro-1H-cyclopenta[a]chrysen-9-yl)benzoic acid], for which the EC50 (reported as group A/B) is less than 100 nM.

For the compound `C=C(C)[C@@H]1CC[C@]2(NCCN3C[C@H]4CC[C@@H](C3)N4C(=O)OC(C)(C)C)CC[C@]3(C)[C@H](CC[C@@H]4[C@@]5(C)CC=C(c6ccc(C(=O)O)cc6)C(C)(C)[C@@H]5CC[C@]43C)[C@@H]12` [Example 13, 4-((1R,3aS,5aR,5bR,7aR,11aS,11bR,13aR,13bR)-3a-((2-((1R,5S)-8-(tert-butoxycarbonyl)-3,8-diazabicyclo[3.2.1]octan-3-yl)ethyl)amino)-5a,5b,8,8,11a-pentamethyl-1-(prop-1-en-2-yl)-2,3,3a,4,5,5a,5b,6,7,7a,8,11,11a,11b,12,13,13a,13b-octadecahydro-1H-cyclopenta[a]chrysen-9-yl)benzoic acid], for the setting “reported as group A/B”, the EC50 was more than 100 nM.

The values above are taken from patent US8889854B2, “C-17 bicyclic amines of triterpenoids with HIV maturation inhibitory activity” (priority 2012, dated 2014).
